Source: the NIST ThermoML archive (doi:10.1016/j.jct.2007.11.011)
Numbers after ± are expanded uncertainties.

Test: xn = mol fraction of the nth substance listed
Details: Liquid

CCOS(=O)(=O)[O-].CCn1cc[n+](C)c1 [1-ethyl-3-methylimidazolium ethyl sulfate] + CO
mass density [kg/m3]
Details	100 kPa	2500 kPa	5000 kPa	10000 kPa	15000 kPa	20000 kPa	25000 kPa	30000 kPa	35000 kPa
283.15 K, x1 = 0.04781	895.14 ± 0.57	896.98 ± 0.6	898.83 ± 0.64	902.39 ± 0.71	905.85 ± 0.78	909.18 ± 0.85	912.41 ± 0.92	915.51 ± 0.98	918.59 ± 1
283.15 K, x1 = 0.1026	968.87 ± 0.48	970.47 ± 0.48	972.09 ± 0.49	975.24 ± 0.5	978.32 ± 0.5	981.31 ± 0.51	984.2 ± 0.51	987.02 ± 0.5	989.77 ± 0.54
283.15 K, x1 = 0.1977	1052.5 ± 0.52	1053.84 ± 0.54	1055.23 ± 0.56	1057.94 ± 0.6	1060.59 ± 0.66	1063.21 ± 0.72	1065.75 ± 0.79	1068.22 ± 0.87	1070.64 ± 0.95
283.15 K, x1 = 0.2432	1081.02 ± 0.55	1082.31 ± 0.58	1083.64 ± 0.61	1086.24 ± 0.69	1088.8 ± 0.77	1091.31 ± 0.87	1093.76 ± 0.97	1096.15 ± 1.1	1098.5 ± 1.2
283.15 K, x1 = 0.3026	1111.91 ± 0.59	1113.14 ± 0.64	1114.41 ± 0.68	1116.86 ± 0.79	1119.26 ± 0.91	1121.66 ± 1.1	1123.99 ± 1.2	1126.28 ± 1.4	1128.48 ± 1.5
283.15 K, x1 = 0.3887	1145.18 ± 0.64	1146.33 ± 0.7	1147.51 ± 0.77	1149.84 ± 0.92	1152.14 ± 1.1	1154.4 ± 1.3	1156.62 ± 1.5	1158.82 ± 1.7	1160.95 ± 1.9
283.15 K, x1 = 0.485	1173.12 ± 0.69	1174.24 ± 0.77	1175.35 ± 0.85	1177.57 ± 1	1179.75 ± 1.2	1181.92 ± 1.5	1184.04 ± 1.7	1186.14 ± 1.9	1188.17 ± 2.2
283.15 K, x1 = 0.589	1195.65 ± 0.73	1196.74 ± 0.81	1197.79 ± 0.91	1199.93 ± 1.1	1202.04 ± 1.4	1204.13 ± 1.6	1206.18 ± 1.9	1208.21 ± 2.1	1210.17 ± 2.4
283.15 K, x1 = 0.7289	1218.63 ± 0.77	1219.71 ± 0.87	1220.74 ± 0.97	1222.79 ± 1.2	1224.82 ± 1.5	1226.84 ± 1.8	1228.82 ± 2.1	1230.77 ± 2.4	1232.67 ± 2.6
283.15 K, x1 = 0.8521	1233.5 ± 0.8	1234.47 ± 0.9	1235.48 ± 1	1237.48 ± 1.3	1239.47 ± 1.6	1241.45 ± 1.9	1243.37 ± 2.2	1245.28 ± 2.5	1247.16 ± 2.8
283.15 K, x1 = 0.9397	1242.49 ± 0.82	1243.52 ± 0.93	1244.49 ± 1.1	1246.47 ± 1.4	1248.43 ± 1.6	1250.39 ± 2	1252.3 ± 2.3	1254.18 ± 2.6	1256.03 ± 2.9
293.15 K, x1 = 0.04781	886.34 ± 0.58	888.27 ± 0.62	890.2 ± 0.66	893.93 ± 0.74	897.52 ± 0.82	900.98 ± 0.9	904.34 ± 0.97	–	–
293.15 K, x1 = 0.1026	960.49 ± 0.49	962.13 ± 0.5	963.82 ± 0.5	967.09 ± 0.52	970.28 ± 0.53	973.36 ± 0.54	976.36 ± 0.54	–	–
293.15 K, x1 = 0.1977	1044.52 ± 0.51	1045.92 ± 0.52	1047.38 ± 0.54	1050.18 ± 0.58	1052.91 ± 0.63	1055.6 ± 0.68	1058.22 ± 0.75	–	–
293.15 K, x1 = 0.2432	1073.23 ± 0.54	1074.55 ± 0.56	1075.93 ± 0.59	1078.61 ± 0.66	1081.24 ± 0.74	1083.82 ± 0.83	1086.34 ± 0.92	–	–
293.15 K, x1 = 0.3026	1104.25 ± 0.58	1105.51 ± 0.62	1106.81 ± 0.67	1109.35 ± 0.77	1111.82 ± 0.88	1114.27 ± 1	1116.67 ± 1.1	–	–
293.15 K, x1 = 0.3887	1137.8 ± 0.63	1138.99 ± 0.69	1140.22 ± 0.75	1142.61 ± 0.89	1144.95 ± 1	1147.27 ± 1.2	1149.55 ± 1.4	–	–
293.15 K, x1 = 0.485	1165.78 ± 0.68	1166.91 ± 0.75	1168.06 ± 0.83	1170.35 ± 1	1172.59 ± 1.2	1174.79 ± 1.4	1176.97 ± 1.6	–	–
293.15 K, x1 = 0.589	1188.53 ± 0.71	1189.55 ± 0.8	1190.65 ± 0.89	1192.84 ± 1.1	1194.99 ± 1.3	1197.11 ± 1.6	1199.2 ± 1.8	–	–
293.15 K, x1 = 0.7289	1211.6 ± 0.75	1212.63 ± 0.85	1213.69 ± 0.95	1215.79 ± 1.2	1217.88 ± 1.5	1219.92 ± 1.7	–	–	–
293.15 K, x1 = 0.8521	1226.42 ± 0.78	1227.39 ± 0.89	1228.45 ± 1	1230.49 ± 1.3	1232.52 ± 1.6	1234.53 ± 1.8	–	–	–
293.15 K, x1 = 0.9397	1235.42 ± 0.8	1236.43 ± 0.91	1237.46 ± 1	1239.51 ± 1.3	1241.5 ± 1.6	1243.48 ± 1.9	–	–	–
